According to patent US9586961B2, “Homopiperazine derivatives as protein tyrosine kinase inhibitors and pharmaceutical use thereof” (LEO PHARMA A/S, priority 2010, dated 2017):

Experiments:
Type in all cases: biochemical
[1] = biological target: T1, JAK1 (Homo sapiens, UniProt P23458); assay: JAK1 kinase assay (HTRF, inhibition of phosphorylation of a synthetic peptide); details: catalytic domain aa 850-1154, GST-tag; 7 μM ATP (Km); read-out: JAK1 kinase inhibitory activity (EC50)
T1 construct: JAK1 (aa 850-1154) and TYK2 (aa 871-1187) are expressed with an N-terminally fused GST-tag; GST (N); purchased Carna Biosciences, Inc; host or cells: baculovirus expression system
T1 sequence (P23458 850-1154): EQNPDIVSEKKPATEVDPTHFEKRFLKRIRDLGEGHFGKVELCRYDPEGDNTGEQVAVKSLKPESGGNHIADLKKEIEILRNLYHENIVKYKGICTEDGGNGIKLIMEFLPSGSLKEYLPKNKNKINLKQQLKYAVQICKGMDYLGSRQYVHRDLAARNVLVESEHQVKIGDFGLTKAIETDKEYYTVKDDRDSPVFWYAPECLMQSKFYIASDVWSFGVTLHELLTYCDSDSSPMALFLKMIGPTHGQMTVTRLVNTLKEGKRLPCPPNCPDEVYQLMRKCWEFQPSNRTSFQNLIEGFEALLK
In short: (§1)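 Baculovirus-expressed catalytic domains (GST-JAK1 aa 850-1154, GST-TYK2 aa 871-1187, His-JAK2, His-JAK3) phosphorylate 1 μM biotin-TK peptide 20-30 min at RT in 50 mM Hepes pH 7.0 with ATP at Km: JAK1 7 μM, JAK2 4 μM, JAK3 2 μM, TYK2 13 μM; 0.75% DMSO. Stopped with EDTA, HTRF read overnight.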

[2] = biological target: T2, TYK2 (Homo sapiens, UniProt P29597); assay: TYK2 kinase assay (HTRF, inhibition of phosphorylation of a synthetic peptide); details: catalytic domain aa 871-1187, GST-tag; 13 μM ATP (Km); read-out: TYK2 kinase inhibitory activity (EC50)
T2 construct: JAK1 (aa 850-1154) and TYK2 (aa 871-1187) are expressed with an N-terminally fused GST-tag; GST (N); purchased Carna Biosciences, Inc; host or cells: baculovirus expression system
T2 sequence (P29597 871-1187): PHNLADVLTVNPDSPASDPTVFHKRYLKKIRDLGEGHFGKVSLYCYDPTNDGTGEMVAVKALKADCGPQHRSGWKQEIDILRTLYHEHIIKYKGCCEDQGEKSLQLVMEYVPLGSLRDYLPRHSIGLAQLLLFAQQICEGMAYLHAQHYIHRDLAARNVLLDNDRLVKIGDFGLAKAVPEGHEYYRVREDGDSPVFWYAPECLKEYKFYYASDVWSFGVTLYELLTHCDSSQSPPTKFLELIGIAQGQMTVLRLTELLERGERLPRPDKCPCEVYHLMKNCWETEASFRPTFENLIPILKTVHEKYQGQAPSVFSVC
Protocol: JAK1, JAK2, JAK3 and TYK2 Kinase Assays:
Human baculovirus-expressed JAK1, 2, 3 and TYK2 were purchased from Carna Biosciences, Inc. All four purified enzymes contain only the catalytic domain. JAK1 (aa 850-1154) and TYK2 (aa 871-1187) are expressed with an N-terminally fused GST-tag, and JAK2 and JAK3 with an N-terminally fused His-tag. Inhibition of phosphorylation of a synthetic peptide was measured in an HTRF-based assay using the TK substrate-Biotin from the CisbioHTRFKinEASE TK kit. First, 2 μl of TK solution (TK substrate-biotin in kinase buffer [1× enzymatic buffer from HTRFKinEASE TK kit, 1 mM DTT]) is added to a plate containing 1 μl prediluted compound (final assay concentration DMSO: 0.75%). Then, 5 μl kinase-ATP mix (prepared in kinase buffer) is added to the wells and the plates are incubated at RT for 20-30 min. For all four kinases a concentration of ATP that corresponded to the Km for ATP was used. The final concentrations of buffers, substrate, kinase and ATP were: JAK1: 50 mMHepes buffer pH 7.0, 0.01% BSA, 10 mM MgCl2, 1 mM DTT, 7 μM ATP, 50 nMSEB, 1 μM TK Substrate-Biotin and 5 ng JAK1; JAK2: 50 mM Hepes buffer pH 7.0, 0.01% BSA, 5 mM MgCl2, 1 mM DTT, 4 μM ATP, 1 μM TK Substrate-Biotin and 0.1 ng JAK2; JAK3: 50 mMHepes buffer pH 7.0, 0.01% BSA, 5 mM MgCl2, 1 mM DTT, 2 μM ATP, 1 μM TK Substrate-Biotin and 0.3 ng JAK3; TYK2: 50 mMHepes buffer pH 7.0, 0.01% BSA, 5 mM MgCl2, 1 mM DTT, 13 μM ATP, 50 nMSEB, 1 μM TK Substrate-Biotin and 0.8 ng TYK2. Thereafter, the kinase reaction is stopped by adding 4 μl detection mix (final concentrations: 50 mM Hepes buffer pH 7.0, 0.01% BSA, 0.8 M KF, 20 mM EDTA, 42 nM Streptavidin-XL665 and 1:400 STKAbCryptate) and the plates are incubated overnight in the dark. The HTRF signal is read using an Envision plate reader.

[3] = biological target: T3, JAK3 (Homo sapiens, UniProt P52333); assay: JAK3 kinase assay (HTRF, inhibition of phosphorylation of a synthetic peptide); details: catalytic domain, His-tag; 2 μM ATP (Km); read-out: JAK3 kinase inhibitory activity (EC50)
T3 construct: All four purified enzymes contain only the catalytic domain; His (N); purchased Carna Biosciences, Inc; host or cells: baculovirus expression system
T3 sequence (P52333 822-1111 limits assumed): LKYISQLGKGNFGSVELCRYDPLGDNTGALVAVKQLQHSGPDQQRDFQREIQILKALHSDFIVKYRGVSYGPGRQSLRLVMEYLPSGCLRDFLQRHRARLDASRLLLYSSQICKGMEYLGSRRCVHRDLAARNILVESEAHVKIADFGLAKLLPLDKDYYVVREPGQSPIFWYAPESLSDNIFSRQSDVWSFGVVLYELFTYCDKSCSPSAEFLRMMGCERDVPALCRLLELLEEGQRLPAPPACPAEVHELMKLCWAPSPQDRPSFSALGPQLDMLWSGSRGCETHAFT
In short: as §1

[4] = biological target: T4, JAK2 (Homo sapiens, UniProt O60674); assay: JAK2 kinase assay (HTRF, inhibition of phosphorylation of a synthetic peptide); details: catalytic domain, His-tag; 4 μM ATP (Km); read-out: JAK2 kinase inhibitory activity (EC50)
T4 construct: All four purified enzymes contain only the catalytic domain; His (N); purchased Carna Biosciences, Inc; host or cells: baculovirus expression system
T4 sequence (O60674 849-1124 limits assumed): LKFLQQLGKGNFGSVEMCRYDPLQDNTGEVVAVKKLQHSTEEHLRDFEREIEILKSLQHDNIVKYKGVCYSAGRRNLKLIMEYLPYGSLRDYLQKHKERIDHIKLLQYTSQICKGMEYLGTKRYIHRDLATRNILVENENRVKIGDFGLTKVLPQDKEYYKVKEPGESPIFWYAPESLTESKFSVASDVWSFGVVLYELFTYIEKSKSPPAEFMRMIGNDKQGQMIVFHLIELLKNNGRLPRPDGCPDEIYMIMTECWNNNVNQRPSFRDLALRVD
In short: as §1

Structure (SMILES) | EC50 [1] [nM] | EC50 [2] [nM] | EC50 [3] [nM] | EC50 [4] [nM]
O=C(Nc1ccccc1)N1CCCN(c2ncnc3[nH]ccc23)CC12CC2 [Example 90, N-phenyl-5-(7H-pyrrolo[2,3-d]pyrimidin-4-yl)-5,9-diazaspiro[2.6]nonane-9-carboxamide] | < 100 | > 1000 | 100 to 1000 | 100 to 1000
NS(=O)(=O)c1csc(C(=O)N2CCN(c3ncnc4[nH]ccc34)CC3(CC3)C2)c1 [Example 27, 5-[5-(7H-pyrrolo[2,3-d]pyrimidin-4-yl)-5,8-diazaspiro[2.6]nonane-8-carbonyl]thiophene-3-sulfonamide] | 100 to 1000 | > 1000 | < 100 | < 100
CCCc1csc(C(=O)N2CCN(c3ncnc4[nH]ccc34)CC3(CC3)C2)c1 [Example 78, (4-propyl-2-thienyl)-[5-(7H-pyrrolo[2,3-d]pyrimidin-4-yl)-5,8-diazaspiro[2.6]nonan-8-yl]methanone] | 100 to 1000 | > 1000 | 100 to 1000 | 100 to 1000
CC(=O)N1CCC(C(=O)N2CCN(c3ncnc4[nH]ccc34)CC3(CC3)C2)CC1 [Example 6, 1-{4-[8-(7H-pyrrolo[2,3-d]pyrimidin-4-yl)-5,8-diazaspiro[2.6]nonane-5-carbonyl]piperidin-1-yl}ethanone] | 100 to 1000 | > 1000 | > 1000 | 100 to 1000
N#Cc1ccc(CC(=O)N2CCCN(c3ncnc4[nH]ccc34)CC23CC3)cc1 [Example 59, 4-[2-oxo-2-[5-(7H-pyrrolo[2,3-d]pyrimidin-4-yl)-5,9-diazaspiro[2.6]nonan-9-yl]ethyl]benzonitrile] | 100 to 1000 | > 1000 | > 1000 | 100 to 1000
NS(=O)(=O)CCCC(=O)N1CCN(c2ncnc3[nH]ccc23)CC2(CC2)C1 [Example 39, 4-oxo-4-[5-(7H-pyrrolo[2,3-d]pyrimidin-4-yl)-5,8-diazaspiro[2.6]nonan-8-yl]butane-1-sulfonamide] | < 100 | > 1000 | < 100 | < 100
N#CCCNS(=O)(=O)c1ccc(C(=O)N2CCN(c3ncnc4[nH]ccc34)CC3(CC3)C2)cc1 [Example 69, N-(2-cyanoethyl)-4-[5-(7H-pyrrolo[2,3-d]pyrimidin-4-yl)-5,8-diazaspiro[2.6]nonane-8-carbonyl]benzenesulfonamide] | 100 to 1000 | > 1000 | 100 to 1000 | 100 to 1000
NS(=O)(=O)c1ccc(OCC(=O)N2CCN(c3ncnc4[nH]ccc34)CC3(CC3)C2)cc1 [Example 63, 4-[2-oxo-2-[5-(7H-pyrrolo[2,3-d]pyrimidin-4-yl)-5,8-diazaspiro[2.6]nonan-8-yl]ethoxy]benzenesulfonamide] | < 100 | < 100 | < 100 | < 100
N#CCc1ccccc1C(=O)N1CCN(c2ncnc3[nH]ccc23)CCC12CC2 [Example 48, 2-[2-[6-(7H-pyrrolo[2,3-d]pyrimidin-4-yl)-6,9-diazaspiro[2.6]nonane-9-carbonyl]phenyl]acetonitrile] | > 1000 | > 1000 | > 1000 | > 1000
N#CC1(C(=O)N2CCN(c3ncnc4[nH]ccc34)CCC23CC3)CC1 [Example 44, 1-[6-(7H-pyrrolo[2,3-d]pyrimidin-4-yl)-6,9-diazaspiro[2.6]nonane-9-carbonyl]cyclopropanecarbonitrile] | 100 to 1000 | > 1000 | > 1000 | 100 to 1000
N#CCC(=O)N1CCN(c2ncnc3[nH]ccc23)CC2(CC2)C1 [Example 5, 3-oxo-3-[8-(7H-pyrrolo[2,3-d]pyrimidin-4-yl)-5,8-diazaspiro[2.6]non-5-yl]propionitrile] | < 100 | 100 to 1000 | < 100 | < 100
NS(=O)(=O)c1ccc(C(=O)N2CCN(c3ncnc4[nH]ccc34)CC3(CC3)C2)o1 [Example 37, 5-[5-(7H-pyrrolo[2,3-d]pyrimidin-4-yl)-5,8-diazaspiro[2.6]nonane-8-carbonyl]furan-2-sulfonamide] | 100 to 1000 | > 1000 | 100 to 1000 | < 100
N#Cc1cccc(C(=O)N2CCN(c3ncnc4[nH]ccc34)CC3(CC3)C2)c1 [Example 3, 3-[8-(7H-pyrrolo[2,3-d]pyrimidin-4-yl)-5,8-diazaspiro[2.6]nonane-5-carbonyl]benzonitrile] | 100 to 1000 | > 1000 | > 1000 | 100 to 1000
CNS(=O)(=O)c1cc(C(=O)N2CCN(c3ncnc4[nH]ccc34)CC3(CC3)C2)sc1C [Example 26, N,2-dimethyl-5-[5-(7H-pyrrolo[2,3-d]pyrimidin-4-yl)-5,8-diazaspiro[2.6]nonane-8-carbonyl]thiophene-3-sulfonamide] | 100 to 1000 | > 1000 | 100 to 1000 | < 100

The remaining lines, values ahead:

EC50 [1] [nM] | EC50 [2] [nM] | EC50 [3] [nM] | EC50 [4] [nM] | Structure (SMILES)
< 100 | 100 to 1000 | 100 to 1000 | < 100 | NS(=O)(=O)c1ccc2[nH]c(C(=O)N3CCN(c4ncnc5[nH]ccc45)CC4(CC4)C3)cc2c1 [Example 101, 2-[5-(7H-pyrrolo[2,3-d]pyrimidin-4-yl)-5,8-diazaspiro[2.6]nonane-8-carbonyl]-1H-indole-5-sulfonamide]
< 100 | 100 to 1000 | 100 to 1000 | < 100 | O=C(c1ccon1)N1CCCN(c2ncnc3[nH]ccc23)CC12CC2 [Example 153, isoxazol-3-yl-[5-(7H-pyrrolo[2,3-d]pyrimidin-4-yl)-5,9-diazaspiro[2.6]nonan-9-yl]methanone]
> 1000 | > 1000 | > 1000 | > 1000 | CC1CN(c2ncnc3[nH]ccc23)CC2(CC2)CN1C(=O)c1ccccc1 (stereo not drawn) [Example 284, [7-methyl-5-(7H-pyrrolo[2,3-d]pyrimidin-4-yl)-5,8-diazaspiro[2.6]nonan-8-yl]-phenyl-methanone]
< 100 | > 1000 | > 1000 | < 100 | N#Cc1ccc(C(=O)C(=O)N2CCN(c3ncnc4[nH]ccc34)CC3(CC3)C2)cc1 [Example 100, 4-[2-oxo-2-[5-(7H-pyrrolo[2,3-d]pyrimidin-4-yl)-5,8-diazaspiro[2.6]nonan-8-yl]acetyl]benzonitrile]
< 100 | 100 to 1000 | < 100 | < 100 | Nc1nonc1C(=O)N1CCCN(c2ncnc3[nH]ccc23)CC12CC2 [Example 256, (4-amino-1,2,5-oxadiazol-3-yl)-[5-(7H-pyrrolo[2,3-d]pyrimidin-4-yl)-5,9-diazaspiro[2.6]nonan-9-yl]methanone]
< 100 | > 1000 | 100 to 1000 | 100 to 1000 | S=C(CC1CCCC1)N1CCCN(c2ncnc3[nH]ccc23)CC12CC2 [Example 95, 2-cyclopentyl-1-[5-(7H-pyrrolo[2,3-d]pyrimidin-4-yl)-5,9-diazaspiro[2.6]nonan-9-yl]ethanethione]
> 1000 | > 1000 | > 1000 | > 1000 | CCCCC(=O)Nc1nc(N2CCNCC3(CC3)C2)c2cc[nH]c2n1 [Example 294]
